# Measurements published in patent US20100099703A1, “PHENYLAMINO-SUBSTITUTED PIPERIDINE COMPOUNDS, THEIR PREPARATION AND USE AS MEDICAMENTS” (priority 2006, published 2010).
# Target: T1, rat Y5 receptor (Rattus norvegicus, UniProt Q63634)
# T1 construct: expressed in transfected cells; host or cells: C6 cells (membrane preparation)
# T1 sequence (Q63634 1-445): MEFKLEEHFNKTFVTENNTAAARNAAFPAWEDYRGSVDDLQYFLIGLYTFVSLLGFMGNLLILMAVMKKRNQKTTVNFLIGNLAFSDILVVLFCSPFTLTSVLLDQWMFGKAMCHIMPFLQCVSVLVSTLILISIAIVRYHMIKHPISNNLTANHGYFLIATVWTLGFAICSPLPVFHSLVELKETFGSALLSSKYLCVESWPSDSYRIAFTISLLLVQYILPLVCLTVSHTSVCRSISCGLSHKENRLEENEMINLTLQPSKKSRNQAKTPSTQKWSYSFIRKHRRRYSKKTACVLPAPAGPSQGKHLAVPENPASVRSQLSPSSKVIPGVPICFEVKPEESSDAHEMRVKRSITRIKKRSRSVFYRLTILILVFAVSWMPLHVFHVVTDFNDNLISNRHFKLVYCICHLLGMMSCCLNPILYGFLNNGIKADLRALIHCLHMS
# Assay: Neuropeptide Y5 receptor binding ([125I]-PYY displacement, membranes of transfected C6 cells)
# Details: radioligand [125I]-PYY 100 pM, C6 cells transfected with rat Y5 receptor; for inhibition at 1 µM: compound at 10^−6 M
# Description: Neuropeptide Y5 Receptor Binding Studies:
# The methods used for membrane preparation and binding are similar to those described by Y. Hu, B. T. Bloomquist et al. in Y. Hu, B. T. Bloomquist et al., The Journal of Biological Chemistry, 1996, 271, 26315-26319 with modifications. Said literature description is herewith incorporated by reference and forms part of the disclosure. Cells C6 were transfected with the rat Y5 receptor. The cells were grown under standard culture conditions in 150 cm^2 dishes and they were harvested using a rubber scraper and 10 ml PBS. The cells from five dishes were collected and centrifuged 2.500 g for 5 min (4° C.). The pellet was washed by resuspending in 3 ml buffer (Tris-HCl 10 mM, pH 7.4), homogenized using a Potter S homogenizer, 10 strokes at 600 rpm and centrifuged 48.000 g for 20 min (4° C.). The pellet was resuspended in 8 ml membrane buffer (Tris-HCl 25 mM, NaCl 120 mM, KCl 5 mM, KH2PO4 1.2 mM, CaCl2 2.5 mM, MgSO4 1.2 mM, BSA 0.15 mg/ml, Bacitracine 0.5 mg/ml, pH 7.4) and rehomogenized using the Potter S, 10 strokes at 600 rpm. The protein concentration in the incubation was 40 μg/ml. The radioligand was [^125I]-PYY (100 pM) in a total incubation volume of 200 μl. Following incubation at 25° C. for 2 h, the reaction was stopped by addition of 5 ml ice-cold buffer (Tris-HCl 25 mM, NaCl 120 mM, KCl 5 mM, KH2PO4 1.2 mM, CaCl2 2.5 mM, MgSO4 1.2 mM, pH 7.4) and rapid filtration in a Harvester Brandell Cell using filters (Schleicher & Schuell GF 3362) pretreated for two hours with 0.5% polyethyleneimine. Filters were washed one time with 5 ml ice-cold buffer. The filters were placed into plastic scintilation vials and 5 ml scintilation cocktail Ecoscint H were added. The quantity of radioactivity present was determined in a Wallac Winspectral 1414 counter. Non specific binding was determined in the presence of 1 μM de pNPY. All binding assays were done in triplicate.
Structure (SMILES),inhibition at 1 µM,IC50
"CCn1c2ccccc2c2cc(NC(=O)CN3CCC(Nc4ccc(O)cc4)CC3)ccc21 [Example 15, N-(9-Ethyl-9H-carbazol-3-yl)-2-[4-(4-hydroxy-phenylamino)-piperidin-1-yl]-acetamide]",74.6%,
"O=C(CN1CCC(Nc2ccccc2)CC1)Nc1ccc2c(c1)CCCC2=O [Example 35, N-(5-Oxo-5,6,7,8-tetrahydro-naphthalen-2-yl)-2-(4-phenylamino-piperidin-1-yl)-acetamide]",67.1%,
"CCN(CCO)c1ccc(NC(=O)CN2CCC(Nc3ccc(OC)cc3)CC2)cc1 [Example 29, N-{4-[Ethyl-(2-hydroxy-ethyl)-amino]-phenyl}-2-[4-(4-methoxy-phenylamino)-piperidin-1-yl]-acetamide]",69%,
"CCn1c2ccccc2c2cc(NC(=O)CN3CCC(Nc4cccc(O)c4)CC3)ccc21 [Example 10, N-(9-Ethyl-9H-carbazol-3-yl)-2-[4-(3-hydroxy-phenylamino)-piperidin-1-yl]-acetamide]",105%,34.6 nM
"O=C(CN1CCC(Nc2ccc(O)cc2)CC1)Nc1ccc2c(c1)-c1ccccc1C2=O [Example 16, 2-[4-(4-Hydroxy-phenylamino)-piperidin-1-yl]-N-(9-oxo-9H-fluoren-3-yl)-acetamide]",101%,
"CCN(CCO)c1ccc(NC(=O)CN2CCC(Nc3ccccc3)CC2)cc1 [Example 34, N-{4-[Ethyl-(2-hydroxy-ethyl)-amino]-phenyl}-2-(4-phenylamino-piperidin-1-yl)-acetamide]",72.6%,
"CCn1c2ccccc2c2cc(NC(=O)CN3CCC(Nc4ccccc4OC)CC3)ccc21 [Example 17, N-(9-Ethyl-9H-carbazol-3-yl)-2-[4-(2-methoxy-phenylamino)-piperidin-1-yl]-acetamide]",101%,46.9 nM
"CCn1c2ccccc2c2cc(NC(=O)CN3CCC(Nc4ccc(OC)cc4)CC3)ccc21 [Example 27, N-(9-Ethyl-9H-carbazol-3-yl)-2-[4-(4-methoxy-phenylamino)-piperidin-1-yl]-acetamide]",91.1%,
"COc1ccc(NC2CCN(CC(=O)Nc3ccc4c(c3)-c3ccccc3C4=O)CC2)cc1 [Example 28, 2-[4-(4-Methoxy-phenylamino)-piperidin-1-yl]-N-(9-oxo-9H-fluoren-3-yl)-acetamide]",97.3%,
"O=C(CN1CCC(N(CC(=O)Nc2ccc3c(c2)-c2ccccc2C3=O)c2ccc(O)cc2)CC1)Nc1ccc2c(c1)-c1ccccc1C2=O [Example 38, 2-(4-{(4-Hydroxy-phenyl)-[(9-oxo-9H-fluoren-3-ylcarbamoyl)-methyl]-amino}-piperidin-1-yl)-N-(9-oxo-9H-fluoren-3-yl)-acetamide]",45.1%,
"CCN(CCO)c1ccc(NC(=O)CN2CCC(Nc3cccc(O)c3)CC2)cc1 [Example 12, N-{4-[Ethyl-(2-hydroxy-ethyl)-amino]-phenyl}-2-[4-(3-hydroxy-phenylamino)-piperidin-1-yl]-acetamide]",51.2%,
"CCn1c2ccccc2c2cc(NC(=O)CN3CCC(Nc4cccc(OC)c4)CC3)ccc21 [Example 23, N-(9-Ethyl-9H-carbazol-3-yl)-2-[4-(3-methoxy-phenylamino)-piperidin-1-yl]-acetamide]",96.9%,
"COc1ccccc1NC1CCN(CC(=O)Nc2cnc3ccccc3c2)CC1 [Example 21, 2-[4-(2-Methoxy-phenylamino)-piperidin-1-yl]-N-quinolin-3-yl-acetamide]",19.6%,
"O=C(CN1CCC(Nc2cccc(O)c2)CC1)Nc1ccc2c(c1)-c1ccccc1C2=O [Example 11, 2-[4-(3-Hydroxy-phenylamino)-piperidin-1-yl]-N-(9-oxo-9H-fluoren-3-yl)-acetamide]",76.9%,35.6 nM
"CCN(CCO)c1ccc(NC(=O)CN2CCC(Nc3cccc(OC)c3)CC2)cc1 [Example 25, N-{4-[Ethyl-(2-hydroxy-ethyl)-amino]-phenyl}-2-[4-(3-methoxy-phenylamino)-piperidin-1-yl]-acetamide]",51.6%,
"COc1cccc(NC2CCN(CC(=O)Nc3ccc4c(c3)-c3ccccc3C4=O)CC2)c1 [Example 24, 2-[4-(3-Methoxy-phenylamino)-piperidin-1-yl]-N-(9-oxo-9H-fluoren-3-yl)-acetamide]",97.5%,
"O=C(CN1CCC(Nc2cccc(O)c2)CC1)Nc1ccc2ncccc2c1 [Example 13, 2-[4-(3-Hydroxy-phenylamino)-piperidin-1-yl]-N-quinolin-6-yl-acetamide]",27.8%,

# Other lines, results leading:
inhibition at 1 µM,IC50,Structure (SMILES)
35.3%,,"O=C(CN1CCC(Nc2ccccc2O)CC1)Nc1ccc(C2CCCCC2)cc1 [Example 4, N-(4-Cyclohexyl-phenyl)-2-[4-(2-hydroxy-phenylamino)-piperidin-1-yl]-acetamide]"
55.7%,,"COc1ccccc1NC1CCN(CC(=O)Nc2ccc(C(=O)c3ccccc3)cc2)CC1 [Example 22, N-(4-Benzoyl-phenyl)-2-[4-(2-methoxy-phenylamino)-piperidin-1-yl]-acetamide]"
97.8%,66.1 nM,"CCn1c2ccccc2c2cc(NC(=O)CN3CCC(Nc4ccccc4O)CC3)ccc21 [Example 3, N-(9-Ethyl-9H-carbazol-3-yl)-2-[4-(2-hydroxy-phenylamino)-piperidin-1-yl]-acetamide]"
14%,,"CC(=O)c1ccc(NC(=O)CN2CCC(Nc3ccccc3O)CC2)cc1 [Example 7, N-(4-Acetyl-phenyl)-2-[4-(2-hydroxy-phenylamino)-piperidin-1-yl]-acetamide]"
22.7%,,"O=C(CN1CCC(Nc2ccccc2O)CC1)Nc1ccc2ncccc2c1 [Example 5, 2-[4-(2-Hydroxy-phenylamino)-piperidin-1-yl]-N-quinolin-6-yl-acetamide]"
44.7%,,"O=C(CN1CCC(Nc2ccccc2O)CC1)Nc1ccc2c(c1)CCCC2=O [Example 9, 2-[4-(2-Hydroxy-phenylamino)-piperidin-1-yl]-N-(5-oxo-5,6,7,8-tetrahydro-naphthalen-2-yl)-acetamide]"
108%,102 nM,"O=C(CN1CCC(Nc2ccccc2)CC1)Nc1ccc2c(c1)-c1ccccc1C2=O [Example 33, N-(9-Oxo-9H-fluoren-3-yl)-2-(4-phenylamino-piperidin-1-yl)-acetamide]"
95%,57.5 nM,"O=C(CN1CCC(Nc2ccccc2O)CC1)Nc1ccc2c(c1)-c1ccccc1C2=O [Example 6, 2-[4-(2-Hydroxy-phenylamino)-piperidin-1-yl]-N-(9-oxo-9H-fluoren-3-yl)-acetamide]"
37%,,"COc1cccc(NC2CCN(CC(=O)Nc3ccc(C(=O)c4ccccc4)cc3)CC2)c1 [Example 26, N-(4-Benzoyl-phenyl)-2-[4-(3-methoxy-phenylamino)-piperidin-1-yl]-acetamide]"
96.1%,,"COc1ccccc1NC1CCN(CC(=O)Nc2ccc3c(c2)-c2ccccc2C3=O)CC1 [Example 18, 2-[4-(2-Methoxy-phenylamino)-piperidin-1-yl]-N-(9-oxo-9H-fluoren-3-yl)-acetamide]"
62.5%,,"O=C(CN1CCC(Nc2ccccc2O)CC1)Nc1ccc(C(=O)c2ccccc2)cc1 [Example 2, N-(4-Benzoyl-phenyl)-2-[4-(2-hydroxy-phenylamino)-piperidin-1-yl]-acetamide]"
5.6%,,"O=C(CN1CCC(Nc2ccccc2O)CC1)Nc1cnc2ccccc2c1 [Example 1, 2-[4-(2-Hydroxy-phenylamino)-piperidin-1-yl]-N-quinolin-3-yl-acetamide]"
80.7%,23.7 nM,"CCn1c2ccccc2c2cc(NC(=O)CN3CCC(Nc4ccccc4)CC3)ccc21 [Example 32, N-(9-Ethyl-9H-carbazol-3-yl)-2-(4-phenylamino-piperidin-1-yl)-acetamide]"
